Results as given in BindingDB's records for doi:10.7270/Q23F4N3R (Burnham Center For Chemical Genomics, 2011).
Where a name gives a salt, the structure may show the parent alone. Where a SMILES comes first, the peptide text is derived from it. Bridges are numbered along the chain shown (N, C = ends). [ ]: non-standard residue; d: D form. The star is where a group is joined. X1 = CCC(C)C(N)C1=NC(C(=O)*)CS1; dOrn = NCCC[C@@H](N)C(=O)O

Test: HK1 enzyme inhibitors – biochemical, selectivity assay for HKDC1 inhibitor project, dose response (AID 504763)
[1] = inactive by the depositor's call

Compound	IC50 [µM]	IC50 [1] [µM]
COc1ccc(OC)c(N2C(=O)C(=Cc3ccco3)C(=O)NC2=S)c1 [MLS001197216]	> 80	
O=C(O)c1ccc(N=Cc2c(O)ccc3ccccc23)cc1 [MLS001205050]	70.8	
COC(=O)c1cc(C)nc2c1C(=O)C(=O)C=C2N1CCOCC1 [MLS001208989]	16.6	
CCc1ccc2c(c1)C(NC(C)=O)C(=O)N2CCN1CCOCC1 (stereo unspecified) [MLS001215951]	> 80	
CC(=O)NC1C(=O)N(CCN2CCOCC2)c2ccc(F)cc21 (stereo unspecified) [MLS001215963]	> 80	
CC(=O)NC1C(=O)N(CCN2CCOCC2)c2ccc(Cl)cc21 (stereo unspecified) [MLS001215975]	> 80	
CC(=O)NC1C(=O)N(CCN2CCOCC2)c2ccc(Br)cc21 (stereo unspecified) [MLS001215987]	> 80	
CCCCC(CC)CNC(=N)NC(=N)NCCCCCCNC(=N)NC(=N)NCC(CC)CCCC (stereo unspecified) [MLS002153995]	38.7	
CCC(C)C(N)C1=NC(C(=O)N[C@@H](CC(C)C)C(=O)N[C@H](CCC(=O)O)C(=O)N[C@H](C(=O)N[C@H]2CCCCNC(=O)[C@H](CC(N)=O)NC(=O)[C@@H](CC(=O)O)NC(=O)[C@H](Cc3c[nH]cn3)NC(=O)[C@@H](Cc3ccccc3)NC(=O)[C@H]([C@@H](C)CC)NC(=O)[C@@H](CCCN)NC2=O)[C@@H](C)CC)CS1 (stereo partly specified) [MLS002207255] (X1-L[dE]IK[dOrn]I[dF]H[dD]N; lactam 4-C)	> 80	
COC1=CC(=O)C=C(OC)C1=O [MLS002207260]	3.54	
Oc1c(Cl)c(N=CCc2ccccc2)c(O)c2ccccc12 [MLS002608293]	18.5	
Nc1c(Br)cc2c3c(cccc13)-c1ccccc1-2 [MLS002694423]	9.59	
Cc1[nH]c2c(=O)c3c(c(=O)c=2[nH]c1C)C1C=CC3CC1 [MLS002701599]	2.08	
COC1=CC(=O)c2c(ccc3ncnc(N)c23)C1=O [MLS002701780]	1.83	
COP(=O)(OC)c1ccc(NCc2cc(O)ccc2O)cc1 [MLS002702382]		26.2
COc1ccc(NC(=O)CSc2ccc(-c3ccco3)nn2)cc1OC [MLS-0374858.0001]	17.7	
CCN(CC)C(=O)c1ccc(C(=O)c2c(C)cc(C)cc2C)cc1 [N,N-diethyl-4-[oxo-(2,4,6-trimethylphenyl)methyl]benzamide]	> 80	
O=C(NC1=CC(=O)c2ccccc2C1=O)c1ccccc1 [N-(1,4-dioxo-2-naphthalenyl)benzamide]	4.01	
COc1ccc(NC(=O)CSc2ccc(-c3ccco3)nn2)c(OC)c1 [N-(2,4-dimethoxyphenyl)-2-[[6-(2-furanyl)-3-pyridazinyl]thio]acetamide]	5.55	
COc1ccc(NC(=O)CSc2ccc(-c3cccnc3)nn2)c(OC)c1 [N-(2,4-dimethoxyphenyl)-2-[[6-(3-pyridinyl)-3-pyridazinyl]thio]acetamide]		21.5
O=C(CSc1n[nH]c(-c2cccnc2)n1)Nc1ccc([N+](=O)[O-])cc1Br [N-(2-bromo-4-nitrophenyl)-2-[(5-pyridin-3-yl-1H-1,2,4-triazol-3-yl)sulfanyl]acetamide]	5.71	
Cc1cc2nnc(SCC(=O)Nc3cc(S(=O)(=O)N4CCOCC4)ccc3Cl)n2c2ccccc12 [N-(2-chloro-5-morpholin-4-ylsulfonylphenyl)-2-[(5-methyl-[1,2,4]triazolo[4,3-a]quinolin-1-yl)sulfanyl]acetamide]	18	
CCOc1ccccc1Nc1nnc(SCc2nnc(-c3cc(OC)c(OC)c(OC)c3)o2)s1 [N-(2-ethoxyphenyl)-5-[[5-(3,4,5-trimethoxyphenyl)-1,3,4-oxadiazol-2-yl]methylthio]-1,3,4-thiadiazol-2-amine]		21.8

Compound	IC50 [µM]	IC50 [1] [µM]
O=S(=O)(Nc1ccc(O)c2ccccc12)c1cccs1 [N-(4-oxidanylnaphthalen-1-yl)thiophene-2-sulfonamide]		55.3
N#Cc1c(SCC(=O)Nc2nc3ccc(Br)cc3s2)sc2c(O)cc(=O)[nH]c12 [N-(6-bromo-1,3-benzothiazol-2-yl)-2-[(3-cyano-5-hydroxy-7-oxo-4H-thieno[3,2-b]pyridin-2-yl)thio]acetamide]		25.9
Cc1cc(C(F)F)n2ncc(C(=O)NCCc3ccc(Cl)cc3)c2n1 [N-[2-(4-chlorophenyl)ethyl]-7-(difluoromethyl)-5-methylpyrazolo[1,5-a]pyrimidine-3-carboxamide]	9.04	
Cc1cc2cc(CCNC(=O)c3ccc(S(=O)(=O)N4CCCC4)cc3)c(O)nc2cc1C [N-[2-(6,7-dimethyl-2-oxo-1H-quinolin-3-yl)ethyl]-4-pyrrolidin-1-ylsulfonylbenzamide]	15	
CCN(CC)CCCNC(=O)c1c(O)c2ccccc2n(Cc2ccccc2)c1=O [N-[3-(diethylamino)propyl]-2-oxidanyl-4-oxidanylidene-1-(phenylmethyl)quinoline-3-carboxamide;hydrochloride]	> 80	
O=C(NC1=C(NC2CCS(=O)(=O)C2)C(=O)c2ccccc2C1=O)c1ccccc1 (stereo unspecified) [N-[3-[(1,1-dioxo-3-thiolanyl)amino]-1,4-dioxo-2-naphthalenyl]benzamide]	6.33	
O=C1C(Cl)=C(NC(=O)c2ccccc2)C(=O)C(Cl)=C1NC(=O)c1ccccc1 [N-[4-benzamido-2,5-bis(chloranyl)-3,6-bis(oxidanylidene)cyclohexa-1,4-dien-1-yl]benzamide]		39.2
O=S(=O)(Nc1cc(Sc2nc[nH]n2)c(O)c2ccccc12)c1ccccc1 [N-[4-oxidanyl-3-(1H-1,2,4-triazol-5-ylsulfanyl)naphthalen-1-yl]benzenesulfonamide]		57.8
CCOc1ccc2c(c1)C(NC(C)=O)C(=O)N2CCN1CCOCC1 (stereo unspecified) [N-[5-ethoxy-1-(2-morpholin-4-ylethyl)-2-oxo-3H-indol-3-yl]acetamide;hydrochloride]	> 80	
CC(=O)NC1C(=O)N(CCN2CCOCC2)c2ccc(C)cc21 (stereo unspecified) [N-[5-methyl-1-(2-morpholin-4-ylethyl)-2-oxidanylidene-3H-indol-3-yl]ethanamide]	> 80	
CCCCNC(=O)c1sc(=S)n2c1[nH]c(=O)c1ccccc12 [N-butyl-5-oxo-1-thioxo-4,5-dihydro[1,3]thiazolo[3,4-a]quinazoline-3-carboxamide]	16.1	
O=C1C(SCCO)=C(SCCO)C(=O)c2ccccc21 [NSC-95397]	8.11	
COc1ccc(OC)c2nc(O)c(CCNC(=O)c3cc4ccccc4o3)cc12 [SMR000018515]		23.8
Cc1cc2cc(CCNC(=O)c3ccc(S(=O)(=O)N4CCOCC4)cc3)c(O)nc2cc1C [SMR000025588]	11.5	
Cc1ccc(Nc2c3[nH]cccc-3c(=O)n2-c2ccccc2C)cc1C [SMR000028201]	> 80	
CCCc1nc2oc3c(NCCOCCO)ncnc3c2c2c1COC(C)(C)C2 [SMR000048002]	11.1	
O=C1C=C(Nc2ccccc2C(=O)O)c2ccccc2C1=O [SMR000123743]	16.9	
CCOC(=O)C1=C(Cc2ccc(OC)cc2)C(=O)c2ccccc2C1=O [SMR000136995]	12.8	
Oc1nc2ccccc2n2c(-c3ccccc3)nnc12 [SMR000162081]	19	
NC(=O)C1CCN(C2=C(Cl)C(=O)c3ccccc3C2=O)CC1 [SMR000180199]	> 80	
CCOC(=O)C1=C(c2ccc(OC)cc2)C(=O)c2ccccc2C1=O [SMR000185036]	2.44	
Cc1cc(C=C2C(=O)NC(=O)N(c3ccc(Cl)cc3)C2=O)c(C)n1-c1sc2c(c1C#N)CCCC2 [SMR000211212]	> 80	
CCc1nc2c(c(=O)c3ccccc3n2C)c(=O)n1-c1ccc(F)cc1 [SMR000221205]	8.41	
